In patent US4113864A (priority 1967, dated 1978):
In brackets after ≈: the same amount, converted by molar mass. Like-named read-outs stand apart in the source and are kept apart here.

How the values were obtained:
[1] = system: rice blast fungi (Pyricularia orysae); format: in vivo
[2] = system: carmine mite (Tetranychus telarius Linne); conditions: dust 4 kg/10 ares
[3] = system: carmine mites (Tetranychus terarius Linne); conditions: diluted 2,000 times; 100 Kg/10 ares; field; after 3 days
[4] = system: rice blast fungi (Pyricularia oryzae); format: in vivo
[5] = system: carmine mites (Tetranychus terarius Linne); assay: Test Example 16: leaf dipping test on carmine mites, mortality after 48 hours; format: in vivo; conditions: wettable powder, leaf dip 1 minute
Description: Mottled kidney bean plants at the 2 leaves-stage, which had elapsed 20 days after sowing, were parasitized with a large number of carmine mites (Tetranychus terarius Linne). The leaves of said plants parasitized with the mites were individually dipped for 1 minute in each of solutions prepared by diluting with water the present compounds (35) to (37), (41) to (44) and (46) to (56) in the form of wettable powders. Subsequently, water was added so as not to wither the leaves. After 48 hours, the alive and dead of the mites were observed.

[6] = system: carmine mite (Tetranychus teralius Linne); conditions: dust 4 kg/10 ares
[7] = system: carmine mites (Tetranychus telarius Linne); assay: Test Example 7: leaf dipping test on carmine mites, mortality after 48 hours; format: in vivo; conditions: wettable powder, leaf dip 1 minute
Description: Mottled kidney bean plants at the 2 leaves-stage, which had elapsed 20 days after sowing were parasitized with a large number of carmine mites (Tetranychus telarius Linne). […] Subsequently, water was added so as not to wither the leaves. After 48 hours, the alive and dead of the mites were observed.

[8] = system: Adzuki bean weevils (Callosobruchus chinensis Linne); format: in vivo; conditions: emulsifiable concentrate; dip 1 minute; after 24 hours
[9] = system: carmine mites (Tetranychus terarius Linne); assay: whole plant or invertebrate; conditions: in Glycine max, 72 h, read-out: Mortality (%) (average of 2 sections)
[10] = system: northern house mosquitoes (Culex pipiens pallens Coquillett); assay: whole plant or invertebrate; format: in vivo; conditions: granules in water, after 24 hours
Description: Well water was charged into a 500 cc. beaker. Into the water, full grown larvae of northern house mosquitoes (Culex pipiens pallens Coquillett) were liberated, and the present compounds (12), (16), (17), (23), (25), (26), (27), (29), (30), (85), (87), (88), (89), (94), (95), (96), (97), (100), (102), (103), (104), (105), (106), (107), (108), (109) and (110) in the form of granules were individually charged.

[11] = system: carmine mites (Tetranychus telarius Linne); assay: whole plant or invertebrate; conditions: in Phaseolus vulgaris
[12] = system: carmine mite (Tetranychus telarius Linne); assay: whole plant or invertebrate; conditions: in Phaseolus vulgaris
[13] = system: rice steam borers (Chilo suppressalis Walker); assay: Test Example 11: mortality of rice stem borers on sprayed rice plants; format: in vivo; conditions: diluted 2,000 times, 6 cc. per pot, wettable powder
Description: (§1) Rice plants at the tillering stage were individually grown in Wagner pots. Onto the rice plants were adhered and encroached eggs of rice steam borers (Chilo suppressalis Walker) immediately before hatching. After 3 days, the rice plants were individually sprayed with each 6 cc. per pot of solutions prepared by diluting with water to 2,000 times the present compounds (11), (14), (15) and (31) in the form of wettable powders.

[14] = system: Small brown plant hopper (Laoclelphex striatellus Fallen); assay: Test Example 15: insecticidal effects on small brown plant hopper; format: in vivo, Laodelphax striatellus Fallen; conditions: rice seedlings dipped 1 minute in emulsion; after 24 hours
Description: Insecticidal effects on Small brown plant hopper (Laoclelphex striatellus Fallen)
Rice seedlings (15-20 cm. in height), which had elapsed 15 days after germination, were individually dipped for 1 minute in emulsions prepared by diluting with water to given concentrations the present compounds (10), (14), (19), (23), (31), (85), (88), (90), (93), (94), (103), (104), (106) and (109) in the form of emulsifiable concentrates. After air-drying, the rice seedlings were individually charged into test glass tubes, and 20-30 plant hoppers (Laodelphax striatellus Fallen) were liberated in each tube, and the tube was covered with gauze.

[15] = system: rice stem borers (Chilo suppressalis Walker); assay: Test Example 4: mortality of rice stem borers on sprayed rice plants; format: in vivo; conditions: diluted 2,000 times; 6 cc. per pot; wettable powder; 4320 min
Description: A rice plant at the tillering stage was grown in a Wagner pot. Onto the rice plant were adhered and encroached eggs of rice stem borers (Chilo suppressalis Walker) immediately before hatching. After 3 days, the rice plant was sprayed with 6 cc. per pot of a solution prepared by diluting with water to 2,000 times the present compound (2) in the form of a wettable powder.

[16] = system: rice stem borers (Chilo suppressalis Walker); assay: Test Example 20: mortality of rice stem borers on sprayed rice plants; format: in vivo; conditions: diluted 2,000 times; 6 cc. per pot; wettable powder; after additional 5 days
Description: as §1, with “stem” for “steam”, “(58) to (62), (65), (68), (85), (88), (96), (104), (107), (109), (110)” for “(11), (14), (15)”, “(112)” for “(31)”

Question: How did the Curative value ([1]; 500 p.p.m.) turn out when CCCCSP(=O)(OCC)Oc1ccccc1 (stereo not drawn) [(1), O-ethyl-O-phenyl-S-n-butyl phosphorothiolate] was run?
Answer: 80.1

Question: Which Mortality (%) ([2]; After 2 days) does the source give for “O-ethyl-O-phenyl-S-2-phenylethyl-phosphorothiolate [(4)]” here?
Answer: 100%

Question: What about the Mortality (%) ([2]; After 5 days) of the same compound?
Answer: 92.4%

Question: What about the Mortality (%) ([2]; After 9 days) of the same compound?
Answer: 81.3%

Question: And the Mortality (%) ([2]; After 13 days)?
Answer: 70.3%

Question: Which results are given for “O-ethyl-O- 4-methylphenyl-S-(sec)-butyl-phosphorothiolate [(34)]”?
Answer: Mortality (%) (average of 2 sections) [3]: 96.4%; Curative value ([4]; in vivo): 97.2

Question: With “O-ethyl-O-2-chlorophenyl-S-sec-butyl-phosphorothiolate [(47)]” as the compound, how does the “LC50 (times diluted)” value [5] read?
Answer: 15,000 times diluted

Question: How did the Curative value ([1]; in vivo) turn out when “O-ethyl-O-phenyl-S-allylphosphorothiolate [(3)]” was run?
Answer: 98.6

Question: For “O-ethyl-O- 3-methylphenyl-S-allyl-phosphorothiolate [(41)]”, which “LC50 (times diluted)” value [5] is on record?
Answer: 1,100,000 times diluted

Question: How did the “LC50 (times diluted)” value [5] turn out when “O-ethyl-O-phenyl-S-sec-butyl phosphorothiolate [(55)]” was run?
Answer: 90,000 times diluted

Question: Which “LC50 (times diluted)” value [5] does the source give for “O-ethyl-O- 4-chlorophenyl-S-allylphosphorothiolate [(43)]” here?
Answer: 11,000 times diluted

Question: For “Phenylmercuric acetate [reference compound]”, which Curative value ([1]; in vivo) is on record?
Answer: 47.6

Question: What about the “Curative value” ([4]; in vivo) of the same compound?
Answer: 47.7

Question: “O-ethyl-O- 3-methylphenyl-S-(sec)-butyl-phosphorothiolate [(42)]” was tested. Which “LC50 (times diluted)” value [5] did it give?
Answer: 1,100,000 times diluted

Question: Which “LC50 (times diluted)” value [5] does the source give for “O-ethyl-O-2,4-dichlorophenyl-S-sec-butyl-phosphorothiolate [(50)]” here?
Answer: 90,000 times diluted

Question: “O-ethyl-O-2-chlorophenyl-S-2-phenylethyl phosphorothiolate [(13)]” was tested. Which “Mortality (%)” value ([6]; After 2 days) did it give?
Answer: 100%

Question: And the “Mortality (%)” value ([6]; After 5 days)?
Answer: 95.3%

Question: And the “Mortality (%)” value ([6]; After 9 days)?
Answer: 92.1%

Question: And the “Mortality (%)” value ([6]; After 13 days)?
Answer: 61.2%

Question: And the “LC50 (diluted times)” value [7]?
Answer: 1,000,000 diluted times

Question: Which results are given for CCOP(=O)(OCC)SCc1ccccc1 [0,0-Diethyl-S-benzyl-phosphorothioate, reference compound]?
Answer: Curative value ([1]; 500 p.p.m.): 69.1; Curative value ([4]; 1,000 p.p.m.): 78.6

Question: What does the source list for “O-ethyl-O-3,4-dimethylphenyl-S-2-phenylethyl-phosphorothiolate [(9)]”?
Answer: Mortality (%) ([6]; After 2 days): 100%; Mortality (%) ([6]; After 5 days): 99.2%; Mortality (%) ([6]; After 9 days): 83.4%; Mortality (%) ([6]; After 13 days): 53.4%; LC50 (diluted times) [8]: 200,000 diluted times

Question: Which mortality at 2000 fold dilution [9] does the source give for CCCSP(=O)(OCC)Oc1cc(C)c(Cl)c(C)c1 (stereo not drawn) [(87)] here?
Answer: 90.6%

Question: What about the LC50 ([10]; Culex pipiens, read-out: LC50) of the same compound?
Answer: 0.054 µg/mL (≈ 0.167 µM)

Question: What about the mortality at 4 kg/10 ares ([11]; 48 h) of the same compound?
Answer: 100%

Question: What about the mortality at 4 kg/10 ares ([11]; 120 h) of the same compound?
Answer: 93.7%

Question: And the mortality at 4 kg/10 ares ([11]; 216 h)?
Answer: 82.3%

Question: And the mortality at 4 kg/10 ares ([11]; 312 h)?
Answer: 31.6%

Question: With CCOP(=O)(Oc1ccccc1)SCCSc1ccccc1 (stereo not drawn) [(5), O-ethyl-O-phenyl-S-2-phenylthioethyl-phosphorothiolate] as the compound, how does the mortality at 4 kg/10 ares ([12]; 48 h) read?
Answer: 100%

Question: And the mortality at 4 kg/10 ares ([12]; 120 h)?
Answer: 98.8%

Question: And the mortality at 4 kg/10 ares ([12]; 216 h)?
Answer: 83.4%

Question: What about the mortality at 4 kg/10 ares ([12]; 312 h) of the same compound?
Answer: 34.4%

Question: For “O-ethyl-O-3,4-dimethyl-S-2-phenylthioethylphosphorothiolate [(52)]”, which “LC50 (times diluted)” value [5] is on record?
Answer: 900,000 times diluted

Question: Which “LC50 (times diluted)” value [5] does the source give for “O-ethyl-O-2-chlorophenyl-S-allyl-phosphorothiolate [(46)]” here?
Answer: 80,000 times diluted

Question: “O-ethyl-O-3,5-dimethyl-4-chlorophenyl-S-sec-butyl phosphorothiolate [(54)]” was tested. Which “LC50 (times diluted)” value [5] did it give?
Answer: 70,000 times diluted

Question: With “O-ethyl-O- 3-methyl-4-chlorophenyl-S-2-phenylethyl-phosphorothiolate [(12)]” as the compound, how does the “Mortality (%) (average of 2 sections)” value [3] read?
Answer: 100.0%

Question: And the “LC50 (diluted times)” value [8]?
Answer: 180,000 diluted times

Question: And the LC50 [10]?
Answer: 0.02 p.p.m.

Question: How did the mortality at 2000 fold dilution [9] turn out when C=CCSP(=O)(OCC)Oc1ccc(C)cc1 (stereo not drawn) [(33), O-ethyl-O-4-methylphenyl-S-allyl-phosphorothiolate] was run?
Answer: 90.7%

Question: For “O-ethyl-O-2,4-dichlorophenyl-S-N-phthalimidemethyl-phosphorothiolate [(53)]”, which “LC50 (times diluted)” value [5] is on record?
Answer: 1,000,000 times diluted

Question: How did the “LC50 (times diluted)” value [5] turn out when “O-ethyl-O- 4-methylphenyl-S-propargyl phosphorothiolate [(35)]” was run?
Answer: 12,000,000 times diluted

Question: How did the “LC50 (times diluted)” value [5] turn out when “O-ethyl-O-2-chlorophenyl-S-propargyl phosphorothiolate [(48)]” was run?
Answer: 150,000 times diluted

Question: How did the “Curative value” ([4]; in vivo) turn out when “O-ethyl-O- 4-chlorophenyl-S-2-phenylethyl phosphorothiolate [(11)]” was run?
Answer: 87.1

Question: And the “LC50 (diluted times)” value [8]?
Answer: 105,000 diluted times

Question: What about the “LC50 (diluted times)” value [7] of the same compound?
Answer: 256,000 diluted times

Question: And the “Mortality (%)” value ([13]; 4320 min)?
Answer: 96.3%

Question: For CCOP(=S)(OCC)SC1OCCOC1SP(=S)(OCC)OCC (stereo not drawn) [2,3-p-Dioxane S,S-bis-(0,0-diethyl phosphorodithioate), reference compound], which “LC50 (diluted times)” value [7] is on record?
Answer: 1,000,000 diluted times

Question: How did the “LC50 (times diluted)” value [5] turn out when “O-ethyl-O-2,4-dichlorophenyl-S-allyl phosphorothiolate [(49)]” was run?
Answer: 60,000 times diluted

Question: For “O-ethyl-O- 4-(tert)-butylphenyl-S-allyl phosphorothiolate [(36)]”, which “LC50 (times diluted)” value [5] is on record?
Answer: 540,000 times diluted

Question: With “O-ethyl-O- 3,4-dimethylphenyl-s-(sec)-butyl phosphorothiolate [(37)]” as the compound, how does the “LC50 (times diluted)” value [5] read?
Answer: 50,000 times diluted

Question: What does the source list for “O-ethyl-O- 3-methylphenyl-S-2-phenylethyl phosphorothiolate [(10)]”?
Answer: LC50 (diluted times) [8]: 300,000 diluted times; LC50 (times diluted) [14]: 512,000 times diluted; LC50 (diluted times) [7]: 6,000,000 diluted times

Question: COP(=S)(OC)Oc1ccc([N+](=O)[O-])c(C)c1 [O,O-dimethyl-O-3-methyl-4-nitrophenyl phosphorothioate] was tested. Which Mortality (%) [15] did it give?
Answer: 94.3%

Question: And the “Mortality (%)” value [16]?
Answer: 94.3%

Question: And the mortality at 2000 fold dilution ([13]; Chilo suppressalis, 72 h)?
Answer: 94.3%

Question: With “O-ethyl-O-4-chlorophenyl-S-2-ethylthio-ethyl-phosphorothiolate [(51)]” as the compound, how does the “LC50 (times diluted)” value [5] read?
Answer: 1,200,000 times diluted

Question: How did the “LC50 (diluted times)” value [7] turn out when CCOC(=O)C(O)(c1ccc(Cl)cc1)c1ccc(Cl)cc1 [Ethyl 4,4'-dichlorobenzilate, reference compound] was run?
Answer: 100,000 diluted times

Question: How did the “LC50 (diluted times)” value [8] turn out when CCOC(=O)CC(SP(=S)(OC)OC)C(=O)OCC (stereo not drawn) [0,0-Dimethyl-S-(1,2-dicarboethoxyethyl) phosphorodithioate, reference compound] was run?
Answer: 8,800 diluted times

Question: “O-ethyl-O-4-chlorophenyl-3-sec-butyl phosphorothiolate [(44)]” was tested. Which “LC50 (times diluted)” value [5] did it give?
Answer: 330,000 times diluted
